Patent US20100152434A1, “Protein Kinase-binding Nucleosides and Associated Methods” (priority 2007, published 2010)

Columns and labels:
EPHA5 = EPHA5 (Homo sapiens, UniProt P54756); test: Ambit kinase phage display ATP-binding-site ligand binding assay; conditions: read-out: percent inhibition of binding
Source text: (§4) In this assay, protein kinases are cloned into T7 bacteriophage which express the kinase fusion proteins on the phage capsid. T7 kinase-tagged phage are then screened for binding to ATP-binding-site ligands that have been immobilized on a solid support. Phage are screened for binding to the anchored ligands both in the presence of test compound and in its absence (control). Elution of the bound phage by free ligand (ATP-binding site ligand that is not immobilized on a solid support) followed by determination of the phage titre provides a reliable measure of the ability of test compounds to block binding of target kinases to resin-bound ATP-binding-site ligands.
(§5) T7 kinase-tagged phage strains were grown in parallel in microtiter plates in a proprietary bacterial host derived from E. Coli strain BL21. E. Coli were grown to a log phase, infected with T7 kinase-tagged phage, and incubated while shaking at 32° C. until bacterial lysis (approx. 90 min). Lysates were centrifuged (6,000 g) and filtered (0.2 μm). Small molecule ATP-binding-site-specific ligands were anchored to solid supports via a two step process beginning with biotin conjugation followed by treatment of the biotin/small molecule conjugate with streptavidin-coated magnetic beads. […] The phage titre of the eluates was measured by quantitative PCR or by plaque assays. […]

MARK1 = MARK1 (Homo sapiens, UniProt Q9P0L2); test: SignalChem radioisotope protein kinase assay; assay type: biochemical; conditions: 5 μl of 100 μM stock solution in 25 μl
Source text: (§1) The various protein kinase targets to be employed in the kinase profiling assay were cloned, expressed and purified in-house at SignalChem (Richmond, BC, Canada) using proprietary methods. Quality control testing is routinely performed on each of the SignalChem targets to ensure compliance to acceptable standards. Protein substrates employed in the target profiling process were synthesized internally. ^33P-ATP was purchased from PerkinElmer. All other materials were of standard grade. Compound 10 (FIG. 4) was supplied to SignalChem in a powder form. It was reconstituted in DMSO to form a stock solution which was then diluted with 10% DMSO to form a working stock solution (100 μM) that was then profiled against the various protein kinase targets. The assay conditions for the various protein kinase targets were optimized to yield acceptable enzymatic activity. In addition, the assays were optimized to give high signal-to-noise ratio.
(§2) SignalChem uses a radioisotope assay format for profiling evaluation of protein kinase targets. Protein kinase assays were performed in triplicate at ambient temperature for 20-40 min (depending on the target) in a final volume of 25 μl according to the following assay reaction recipe: • Component 1: 5 μl of diluted active protein kinase target (˜10-40 nM final protein concentration in the assay) • Component 2: 5 μl of stock solution of substrate (1-5 μg of peptide or protein substrate) • Component 3: 5 μl of kinase assay buffer or protein kinase activator in kinase assay buffer • Component 4: 5 μl of Compound 10 (100 μM stock solution) or 10% DMSO • Component 5: 5 μl of 33P-ATP (25 μM stock solution, 0.8 μCi)
(§3) The assay was initiated by the addition of ^33P-ATP and the reaction mixture incubated at ambient temperature for 20-40 minutes, depending on the protein kinase target. After the incubation period, the assay was terminated by spotting 10 μl of the reaction mixture onto a Millipore Multiscreen plate. The Millipore Multiscreen plate was washed 3 times for approximately 15 minutes each in a 1% phosphoric acid solution. The radioactivity on the P81 plate was counted in the presence of scintillation fluid in a Trilux scintillation counter. Blank control, which included all the assay components except the addition of the appropriate substrate (replaced with equal volume of assay dilution buffer), was set up for each protein kinase target. The corrected activity for each protein kinase target was determined by removing the blank control value.

AURORA B = AURORA B (Homo sapiens, UniProt Q96GD4); test: SignalChem radioisotope protein kinase assay; assay type: biochemical; conditions: 5 μl of 100 μM stock solution in 25 μl
Source text: as §1, §2, §3

PIM1 = PIM1 (Homo sapiens, UniProt P11309); test: SignalChem radioisotope protein kinase assay; assay type: biochemical; conditions: 5 μl of 100 μM stock solution in 25 μl
Chain of PIM1 (P11309 whole entry, species assumed): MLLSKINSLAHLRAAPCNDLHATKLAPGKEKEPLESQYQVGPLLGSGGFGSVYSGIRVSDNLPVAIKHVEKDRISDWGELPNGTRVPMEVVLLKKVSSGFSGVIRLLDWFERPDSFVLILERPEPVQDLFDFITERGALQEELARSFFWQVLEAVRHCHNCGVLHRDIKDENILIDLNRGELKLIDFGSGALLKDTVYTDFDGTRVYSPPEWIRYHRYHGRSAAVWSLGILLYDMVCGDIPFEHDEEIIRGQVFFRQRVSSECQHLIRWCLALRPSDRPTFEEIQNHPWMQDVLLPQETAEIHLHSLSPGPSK
Source text: as §1, §2, §3

PDGFRα = PDGFRα (Homo sapiens, UniProt P16234); test: SignalChem radioisotope protein kinase assay; assay type: biochemical; conditions: 5 μl of 100 μM stock solution in 25 μl
Source text: as §1, §2, §3

AKT3 = AKT3 (Homo sapiens, UniProt Q9Y243); test: SignalChem radioisotope protein kinase assay; assay type: biochemical; conditions: 5 μl of 100 μM stock solution in 25 μl
Source text: as §1, §2, §3

PAK2 = PAK2 (Homo sapiens, UniProt Q13177); test: SignalChem radioisotope protein kinase assay; assay type: biochemical; conditions: 5 μl of 100 μM stock solution in 25 μl
Source text: as §1, §2, §3

FAK = FAK (Homo sapiens, UniProt Q05397); test: SignalChem radioisotope protein kinase assay; assay type: biochemical; conditions: 5 μl of 100 μM stock solution in 25 μl
Source text: as §1, §2, §3

BRK = BRK (Homo sapiens, UniProt Q13882); test: SignalChem radioisotope protein kinase assay; assay type: biochemical; conditions: 5 μl of 100 μM stock solution in 25 μl
Source text: as §1, §2, §3

RSK2 = target: T1, RSK2 (Homo sapiens, UniProt P51812); test: SignalChem radioisotope protein kinase assay; assay type: biochemical; conditions: 5 μl of 100 μM stock solution in 25 μl
T1 construct: purchased SignalChem
Source text: as §1, §2, §3

LYN B = LYN B (Homo sapiens, UniProt P07948); test: SignalChem radioisotope protein kinase assay; assay type: biochemical; conditions: 5 μl of 100 μM stock solution in 25 μl
Source text: as §1, §2, §3

p70S6K = p70S6K (Homo sapiens, UniProt P23443); test: SignalChem radioisotope protein kinase assay; assay type: biochemical; conditions: 5 μl of 100 μM stock solution in 25 μl
Chain of p70S6K (P23443 whole entry): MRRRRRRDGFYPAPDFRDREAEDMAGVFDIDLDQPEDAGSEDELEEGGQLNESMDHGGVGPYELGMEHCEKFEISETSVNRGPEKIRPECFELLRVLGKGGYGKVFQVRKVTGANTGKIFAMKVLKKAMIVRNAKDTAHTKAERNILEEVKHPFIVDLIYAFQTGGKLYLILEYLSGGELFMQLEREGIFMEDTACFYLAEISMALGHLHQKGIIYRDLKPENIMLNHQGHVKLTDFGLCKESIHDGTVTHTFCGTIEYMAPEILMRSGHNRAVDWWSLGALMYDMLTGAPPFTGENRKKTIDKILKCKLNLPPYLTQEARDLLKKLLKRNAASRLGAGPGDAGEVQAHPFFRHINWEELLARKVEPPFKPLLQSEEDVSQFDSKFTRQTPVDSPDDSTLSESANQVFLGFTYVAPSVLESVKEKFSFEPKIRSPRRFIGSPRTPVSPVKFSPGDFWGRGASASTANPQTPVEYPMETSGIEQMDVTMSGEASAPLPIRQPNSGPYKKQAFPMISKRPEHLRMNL
Source text: as §1, §2, §3

MST4 = MST4 (Homo sapiens, UniProt Q9P289); test: SignalChem radioisotope protein kinase assay; assay type: biochemical; conditions: 5 μl of 100 μM stock solution in 25 μl
Source text: as §1, §2, §3

HER2 = HER2 (Homo sapiens, UniProt P04626); test: SignalChem radioisotope protein kinase assay; assay type: biochemical; conditions: 5 μl of 100 μM stock solution in 25 μl
Source text: as §1, §2, §3

ABL1 = ABL1 (Homo sapiens, UniProt P00519); test: SignalChem radioisotope protein kinase assay; assay type: biochemical; conditions: 5 μl of 100 μM stock solution in 25 μl
Source text: as §1, §2, §3

ERK1 = ERK1 (Homo sapiens, UniProt P27361); test: SignalChem radioisotope protein kinase assay; assay type: biochemical; conditions: 5 μl of 100 μM stock solution in 25 μl
Source text: as §1, §2, §3

SGK1 = target: T2, SGK1 (Homo sapiens, UniProt O00141); test: SignalChem radioisotope protein kinase assay; assay type: biochemical; conditions: 5 μl of 100 μM stock solution in 25 μl
T2 construct: purchased SignalChem
T2 sequence (O00141 whole entry, species assumed): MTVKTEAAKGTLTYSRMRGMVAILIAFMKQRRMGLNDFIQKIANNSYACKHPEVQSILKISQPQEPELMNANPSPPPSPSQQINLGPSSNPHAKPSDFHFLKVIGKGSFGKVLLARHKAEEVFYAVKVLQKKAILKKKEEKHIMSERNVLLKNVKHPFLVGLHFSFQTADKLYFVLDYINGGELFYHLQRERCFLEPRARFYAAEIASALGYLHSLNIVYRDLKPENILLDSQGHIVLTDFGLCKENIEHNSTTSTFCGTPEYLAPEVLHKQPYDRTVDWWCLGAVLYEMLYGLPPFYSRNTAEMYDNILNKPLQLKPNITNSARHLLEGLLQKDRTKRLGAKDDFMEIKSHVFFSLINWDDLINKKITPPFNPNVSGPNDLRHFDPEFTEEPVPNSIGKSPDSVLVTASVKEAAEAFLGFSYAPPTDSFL
Source text: as §1, §2, §3

PIM2 = PIM2 (Homo sapiens, UniProt Q9P1W9); test: SignalChem radioisotope protein kinase assay; assay type: biochemical; conditions: 5 μl of 100 μM stock solution in 25 μl
Source text: as §1, §2, §3

ALK4 = ALK4 (Homo sapiens, UniProt P36896); test: SignalChem radioisotope protein kinase assay; assay type: biochemical; conditions: 5 μl of 100 μM stock solution in 25 μl
Source text: as §1, §2, §3

p38α = p38α (Homo sapiens, UniProt Q16539); test: SignalChem radioisotope protein kinase assay; assay type: biochemical; conditions: 5 μl of 100 μM stock solution in 25 μl
Chain of p38α (Q16539 whole entry): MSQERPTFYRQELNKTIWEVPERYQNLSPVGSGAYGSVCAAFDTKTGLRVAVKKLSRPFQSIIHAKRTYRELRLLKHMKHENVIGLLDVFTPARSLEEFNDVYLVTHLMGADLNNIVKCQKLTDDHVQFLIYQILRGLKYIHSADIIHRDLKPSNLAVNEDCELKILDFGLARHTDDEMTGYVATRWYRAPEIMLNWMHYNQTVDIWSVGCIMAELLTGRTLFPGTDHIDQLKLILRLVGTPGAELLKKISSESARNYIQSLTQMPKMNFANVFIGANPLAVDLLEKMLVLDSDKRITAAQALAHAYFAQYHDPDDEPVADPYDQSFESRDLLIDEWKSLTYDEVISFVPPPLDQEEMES
Source text: as §1, §2, §3

PKCα = target: T3, PKCα (Homo sapiens, UniProt P17252); test: SignalChem radioisotope protein kinase assay; assay type: biochemical; conditions: 5 μl of 100 μM stock solution in 25 μl
T3 construct: purchased SignalChem
Source text: as §1, §2, §3

PAK3 = PAK3 (Homo sapiens, UniProt O75914); test: SignalChem radioisotope protein kinase assay; assay type: biochemical; conditions: 5 μl of 100 μM stock solution in 25 μl
Source text: as §1, §2, §3

FMS = FMS (Homo sapiens, UniProt P07333); test: SignalChem radioisotope protein kinase assay; assay type: biochemical; conditions: 5 μl of 100 μM stock solution in 25 μl
Source text: as §1, §2, §3

BTK = BTK (Homo sapiens, UniProt Q06187); test: Ambit kinase phage display ATP-binding-site ligand binding assay; conditions: read-out: % Inhibition of binding to ATP-binding-site ligand
Source text: as §4, §5

MARK3 = MARK3 (Homo sapiens, UniProt P27448); test: as above; conditions: read-out: % Inhibition of binding to ATP-binding-site ligand
Source text: as §4, §5

DAPK1 = DAPK1 (Homo sapiens, UniProt P53355); test: as above; conditions: read-out: percent inhibition of binding
Chain of DAPK1 (P53355 whole entry): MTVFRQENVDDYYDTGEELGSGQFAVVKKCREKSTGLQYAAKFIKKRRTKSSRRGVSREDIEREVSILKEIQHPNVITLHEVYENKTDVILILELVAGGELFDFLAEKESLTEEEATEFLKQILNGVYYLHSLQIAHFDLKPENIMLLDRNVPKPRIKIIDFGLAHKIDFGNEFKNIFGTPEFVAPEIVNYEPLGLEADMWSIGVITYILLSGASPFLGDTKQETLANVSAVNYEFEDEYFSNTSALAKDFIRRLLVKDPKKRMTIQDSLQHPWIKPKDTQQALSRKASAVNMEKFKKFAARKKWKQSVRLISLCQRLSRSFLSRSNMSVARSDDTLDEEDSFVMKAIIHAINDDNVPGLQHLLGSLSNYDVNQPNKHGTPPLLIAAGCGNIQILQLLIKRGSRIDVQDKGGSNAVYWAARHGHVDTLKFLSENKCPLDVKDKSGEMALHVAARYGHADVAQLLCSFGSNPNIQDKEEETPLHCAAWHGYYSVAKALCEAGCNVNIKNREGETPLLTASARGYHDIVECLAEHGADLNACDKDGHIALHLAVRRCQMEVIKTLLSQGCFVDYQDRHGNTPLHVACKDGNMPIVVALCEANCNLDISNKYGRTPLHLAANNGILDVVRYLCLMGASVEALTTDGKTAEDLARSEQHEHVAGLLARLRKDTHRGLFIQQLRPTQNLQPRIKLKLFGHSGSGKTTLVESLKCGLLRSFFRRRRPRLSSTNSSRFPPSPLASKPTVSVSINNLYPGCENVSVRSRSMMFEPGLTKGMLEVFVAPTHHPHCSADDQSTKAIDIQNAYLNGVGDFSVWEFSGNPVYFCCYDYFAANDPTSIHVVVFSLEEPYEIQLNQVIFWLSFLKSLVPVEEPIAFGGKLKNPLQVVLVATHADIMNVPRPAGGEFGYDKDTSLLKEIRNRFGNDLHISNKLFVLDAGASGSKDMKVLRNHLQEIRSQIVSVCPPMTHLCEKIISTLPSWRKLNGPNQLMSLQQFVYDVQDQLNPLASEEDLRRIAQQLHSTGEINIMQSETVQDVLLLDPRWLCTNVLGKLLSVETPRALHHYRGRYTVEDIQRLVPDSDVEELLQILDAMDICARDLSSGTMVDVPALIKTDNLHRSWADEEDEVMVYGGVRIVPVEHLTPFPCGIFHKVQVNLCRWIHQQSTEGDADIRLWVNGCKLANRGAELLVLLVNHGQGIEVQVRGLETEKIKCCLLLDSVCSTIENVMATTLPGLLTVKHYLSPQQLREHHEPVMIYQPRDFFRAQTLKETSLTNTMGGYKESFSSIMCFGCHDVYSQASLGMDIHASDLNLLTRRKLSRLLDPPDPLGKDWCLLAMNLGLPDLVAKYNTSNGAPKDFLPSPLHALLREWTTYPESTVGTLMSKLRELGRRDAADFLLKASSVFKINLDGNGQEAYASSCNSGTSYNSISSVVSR
Source text: as §4, §5

Chain of EPHA5 (P54756 25-1037): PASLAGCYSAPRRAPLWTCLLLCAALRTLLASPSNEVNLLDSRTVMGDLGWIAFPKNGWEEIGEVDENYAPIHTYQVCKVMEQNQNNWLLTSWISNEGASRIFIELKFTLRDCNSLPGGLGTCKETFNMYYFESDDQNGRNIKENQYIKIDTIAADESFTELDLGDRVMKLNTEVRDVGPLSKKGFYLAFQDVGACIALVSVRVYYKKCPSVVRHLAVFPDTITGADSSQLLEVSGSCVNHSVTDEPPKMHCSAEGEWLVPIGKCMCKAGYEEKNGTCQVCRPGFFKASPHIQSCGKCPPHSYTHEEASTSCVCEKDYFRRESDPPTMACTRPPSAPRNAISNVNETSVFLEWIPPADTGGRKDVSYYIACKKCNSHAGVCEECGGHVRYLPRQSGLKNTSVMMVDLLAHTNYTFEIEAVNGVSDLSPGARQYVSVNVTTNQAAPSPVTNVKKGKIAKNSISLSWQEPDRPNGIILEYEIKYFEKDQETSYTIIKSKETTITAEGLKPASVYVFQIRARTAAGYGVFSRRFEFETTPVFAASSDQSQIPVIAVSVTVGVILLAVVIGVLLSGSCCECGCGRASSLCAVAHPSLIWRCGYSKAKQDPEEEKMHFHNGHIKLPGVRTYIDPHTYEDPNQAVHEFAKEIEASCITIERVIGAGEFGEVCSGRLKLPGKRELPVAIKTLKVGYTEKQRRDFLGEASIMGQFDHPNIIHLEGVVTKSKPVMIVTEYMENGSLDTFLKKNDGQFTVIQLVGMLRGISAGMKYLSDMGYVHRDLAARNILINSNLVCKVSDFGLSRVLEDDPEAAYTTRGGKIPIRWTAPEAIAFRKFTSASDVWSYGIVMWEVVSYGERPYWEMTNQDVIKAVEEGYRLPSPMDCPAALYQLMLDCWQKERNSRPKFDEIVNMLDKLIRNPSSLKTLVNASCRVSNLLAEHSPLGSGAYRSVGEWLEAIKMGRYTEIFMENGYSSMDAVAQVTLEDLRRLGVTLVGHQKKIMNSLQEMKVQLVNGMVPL
Chain of MARK1 (Q9P0L2 whole entry, species assumed): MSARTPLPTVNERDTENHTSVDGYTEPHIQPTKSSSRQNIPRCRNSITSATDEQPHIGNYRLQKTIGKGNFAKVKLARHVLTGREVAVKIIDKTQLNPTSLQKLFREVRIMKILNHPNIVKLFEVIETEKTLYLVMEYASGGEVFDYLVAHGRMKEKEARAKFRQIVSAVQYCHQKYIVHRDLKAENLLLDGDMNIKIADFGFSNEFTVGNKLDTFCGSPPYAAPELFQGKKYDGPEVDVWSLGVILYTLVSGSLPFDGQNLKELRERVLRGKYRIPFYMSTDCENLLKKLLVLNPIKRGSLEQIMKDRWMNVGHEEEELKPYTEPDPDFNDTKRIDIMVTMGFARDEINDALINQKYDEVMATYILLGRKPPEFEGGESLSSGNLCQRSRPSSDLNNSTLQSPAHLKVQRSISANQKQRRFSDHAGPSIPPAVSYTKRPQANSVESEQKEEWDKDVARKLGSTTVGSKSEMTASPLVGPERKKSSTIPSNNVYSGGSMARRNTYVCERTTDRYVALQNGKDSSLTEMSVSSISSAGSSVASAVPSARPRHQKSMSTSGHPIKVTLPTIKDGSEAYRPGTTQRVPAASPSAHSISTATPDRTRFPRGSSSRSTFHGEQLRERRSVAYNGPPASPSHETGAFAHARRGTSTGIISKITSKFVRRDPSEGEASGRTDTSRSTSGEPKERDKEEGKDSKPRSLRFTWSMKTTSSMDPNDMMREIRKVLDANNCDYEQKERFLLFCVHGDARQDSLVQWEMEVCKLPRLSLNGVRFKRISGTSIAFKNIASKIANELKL

Which results are given for `CCOC(=O)C[C@@H]1C(O[Si](C)(C)C(C)(C)C)[C@H](n2cnc3c(NC(=O)Nc4ccccc4)ncnc32)O[C@@H]1CNC(=O)NC` (some centres unmarked) [Compound 10]?
inhibition at 10 µM (EPHA5): 20 to 29%; % Activity Change (MARK1): 5%; % Activity Change (AURORA B): 4%; % Activity Change (PIM1): 51%; % Activity Change (PDGFRα): −2%; % Activity Change (AKT3): 52%; % Activity Change (PAK2): 16%; % Activity Change (FAK): −3%; % Activity Change (BRK): 2%; % Activity Change (RSK2): −4%; % Activity Change (LYN B): 12%; % Activity Change (p70S6K): −1%; % Activity Change (MST4): 47%; % Activity Change (HER2): 4%; % Activity Change (ABL1): 0%; % Activity Change (ERK1): 6%; % Activity Change (SGK1): 36%; % Activity Change (PIM2): 18%; % Activity Change (ALK4): 2%; % Activity Change (p38α): 9%; % Activity Change (PKCα): 36%; % Activity Change (PAK3): 524%; % Activity Change (FMS): −17%; inhibition at 10 µM (BTK): 35%; inhibition at 10 µM (MARK3): 34%; inhibition at 10 µM (DAPK1): 20 to 29%
